Legend:
[1] = test system: mycelium of most mushroom species, e.g. A. bisporus; settings: cited from earlier work
[2] = test system: most fungi; settings: cited from earlier work
[3] = test system: Agaricus bisporus; type: in vivo; settings: after 3 flushes
Method: This example describes the effect of natamycin on the yield of mushrooms. Tubs having an area of 0.26 m^2 were filled with commercially prepared pasteurized mushroom substrate inoculated with spawn (seed) of the commercial button mushroom Agaricus bisporus. Following colonization by the mushroom fungus, the substrate was covered by a layer of peat moss, mixed with limestone (the casing layer) and further incubated under well known standard conditions until mycelial strands were visible on the surface. Fruiting bodies were initiated by manipulating the external environment using methods well known in the industry. 9 tubs were treated five days prior to the first flush by applying an aqueous solution containing 10 ppm of natamycin, as a control 9 tubs were treated the same way however without natamycin. The aqueous solution was applied at a rate of 1.84 liter per square meter and the mushroom beds were allowed to continue growing.

[4] = test system: Dactylium dendroides; assay: Mould growth on Potato Dextrose Agar plates containing natamycin; type: cell-based; settings: 5 days at 25° C.
Method: (§1) Each of these organisms were field isolates.
(§2) Potato Dextrose Agar plates containing 0, 10 and 20 ppm of natamycin and mould suspensions were prepared using well known methods.
(§3) The freshly prepared suspensions were dilluted to final concentrations of 10^4 Colony Forming Units/ml.
(§4) 10 μl of each mould suspensions was inoculated in a spot on the agar plates (in duplo). The plates were incubated for 5 days at 25° C.
(§5) After 5 days of incubation on the control plates containing no natamycin, clear colonies were formed.

[5] = test system: Verticillium fungicola; assay: as above; type: cell-based; settings: 5 days at 25° C.
Method: as §1, §2, §3, §4, §5

[6] = test system: Mycogone pernicosa; assay: as above; type: cell-based; settings: 5 days at 25° C.
Method: as §1, §2, §3, §4, §5

[7] = test system: Trichoderma harzianum; assay: as above; type: cell-based; settings: 5 days at 25° C.
Method: as §1, §2, §3, §4, §5

C[C@@H]1C/C=C/C=C/C=C/C=C/[C@H](O[C@@H]2O[C@H](C)[C@@H](O)[C@H](N)[C@@H]2O)C[C@@H]2O[C@](O)(C[C@@H](O)C[C@H]3O[C@@H]3/C=C/C(=O)O1)C[C@H](O)[C@H]2C(=O)O [natamycin]
inhibition of mushroom mycelium [1]: inhibited | MIC (Minimal Inhibitory Concentration) [2]: less than 20 ppm | average yield ([3]; 10 ppm natamycin aqueous solution, 1.84 liter per square meter, five days prior to first flush, 9 tubs): 3.94 pounds per square feet | yield compared to the untreated control ([3]; 10 ppm natamycin): statistically significant yield increase | growth on agar plate ([4]; 10 ppm natamycin): no growth | growth on agar plate ([4]; 20 ppm natamycin): no growth | growth on agar plate ([5]; 10 ppm natamycin): only some slight growth | growth on agar plate ([5]; 20 ppm natamycin): no growth | growth on agar plate ([6]; 10 ppm natamycin): no growth | growth on agar plate ([6]; 20 ppm natamycin): no growth | growth on agar plate ([7]; 10 ppm natamycin): no growth | growth on agar plate ([7]; 20 ppm natamycin): no growth
